Data: paper PMC11352932, “Enhancing Maturation and Translatability of Human Pluripotent Stem Cell-Derived Cardiomyocytes through a Novel Medium Containing Acetyl-CoA Carboxylase 2 Inhibitor” (Cells, 2024)
Positions of bridges follow the written chain, without caps; N, C: chain ends. No end group written: not given here.

Legend:
[1] = tested on: IK1, encoded by Kir channels; assay: Block of inward current in voltage-clamp; format: cell-based, human; conditions: hiPSC-CMs cultured in maturation medium
Description: All recordings were performed at RT.
Cells were superfused with an extracellular solution containing (mM) NaCl 136.8, KCl 4, HEPES 10, CaCl2 2, MgCl2 1, and Glucose 10 (pH adjusted to 7.2 with NaOH) for AP recording and K^+ current whole-cell recording. For whole-cell recording of Na^+ and Ca^2+ currents, the following extracellular solution was used (mM): NaCl 40, KCl 4, NMDG 96.8, HEPES 10, CaCl2 2, MgCl2 1, and Glucose 10 (pH adjusted to 7.2 with HCl); 1 mM of CdCl2 was also added to block L-type Ca^2+ currents when recording Na^+ currents.
Patch pipettes contained (mM): KCl 150, HEPES 10, EGTA 10, and MgATP 2 (pH adjusted to 7.2 with KOH). For AP recording, perforated patch recording was used, and pipettes were backfilled with a solution containing 50 μg/mL gramicidin (diluted from a 50 mg/mL gramicidin DMSO stock solution). A stock solution of ivabradine was prepared with DMSO. All stock solutions were diluted ≥1:1000 in extracellular solution before use.

iPSC C32 CMs = assay: Calcium imaging, Fluo-4, with and without isoproterenol; format: cell-based, human
Description: (§1) iPSC C32-derived CMs were mounted on glass-bottom organ dishes (MatTek, P35G-1.5-14-c) coated with matrigel and incubated with Fluo-4 (Molecular Probes) at 5 µM for 30 min. Fluo-4 was washed in Tyrode’s solution for 30 min before imaging. Cells were placed in Tyrode’s solution containing CaCl2: 1.8 mM; NaCl: 130 mM; KCl: 5.4 mM; HEPES: 25 mM; MgCl2·6H2O: 0.5 mM; NaH2PO4: 0.4 mM; pH 7.4 at 37 °C for imaging. CMs were paced at 1 Hz and live imaging was recorded at 98 fps using a Nikon Eclipse with a Yokogawa CSU-X1 spinning disk and an EM-CCD Andor camera for high-speed acquisition. Individual whole-cell calcium transient intensities were analyzed in R software (V4.3.1). iCell CMs^2 were plated in 96-well CellCarrier Ultra Phenoplates (PerkinElmer) coated with fibronectin and stained with the EarlyTox^TM Cardiotoxicity kit (Molecular Devices, San Jose, CA, USA), following the manufacturer’s recommendations. Calcium transients were analyzed in the FDSS/µCell system (Hamatsu Photonics, Hamamatsu, Japan). Data were analyzed using FDSS Wavefront Analysis Software (V.1.2.2E). Isoproterenol was used at a final concentration of 1 µM. Calcium transients are calculated as ∆F/F0, with signal leveling and background normalization, where F0 is background fluorescence and F is fluorescence intensity. For each cell, amplitude (peak intensity), upstroke velocity, decay velocity, and peak width at 70% duration (PWD70%) were calculated.
HiPSC-C32 CMs cultured in
Data are presented as mean
E. Representative fluorescent images
ACC2i, and maturation medium. Scale bars: 20µm.
Figure S6. Maturation medium enhances response to hERG blockers. AP recordings were obtained […]
antiarrhythmic known to specifically block hERG.

hiPSC-CMs [2] = assay: hiPSC-CM viability by number of nuclei; format: cell-based, human; conditions: number of nuclei after 7 days in culture
Description: We initially investigated the impact of increasing concentrations of the ACC inhibitor CP640186 (hereafter referred to as ACC2i, given the predominant expression of ACC2 in CMs) on hiPSC-CM viability. […] Based on these initial results, a concentration of 5 uM was selected for further examination of the role of ACC2i in improving hiPSC-CM maturation.
Figure S1. ACC2 inhibition enhances fatty acid oxidation. Increasing concentrations of ACC2 inhibition are toxic for hiPSC-CMs at concentrations exceeding 5uM. A. Schematic showing signaling cascade and mode of action of acetyl-CoA carboxylase (ACC). There are 2 ACC isoforms: ACC1 in cytosol that is dedicated to the rate limiting step of de novo lipogenesis, and ACC2 a mitochondrial membrane […]
palmitoyltransferase (CPT-1), responsible for long-chain fatty-acid transport into mitochondria.
Combined ACC1 and 2 inhibition is expected to reduce malonyl-CoA levels and de-novo lipogenesis, and to enhance CPT-1 activity and fatty acid oxidation (FAO). G-6-P (glucose-6-phosphate), TCA cycle (tricarboxylic acid cycle), ETC (electron transport chain). B. Impact of increasing doses of ACC2i on hiPSC-CMs viability assessed by number of nuclei after 7 days in culture.
ACC2i concentrations higher than 5 µm. Source of mitochondria image: Servier Medical Art. Statistical […]
(1 picture or pasted object on this page, not shown here)

iCell CMs^2 = assay: Calcium transients, EarlyTox dye, FDSS; format: cell-based, human; conditions: maturation medium vs maturation medium without ACC2i
Description: as §1

hiPSC-CMs [3] = assay: Seahorse bioenergetics (Mito Stress test, etomoxir FAO); format: cell-based, human; conditions: maturation medium versus maturation medium without ACC2i
Description: The Seahorse XF96 extracellular flux analyzer (Agilent, Santa Clara, CA, USA) was used to assess mitochondrial function. Seahorse plates were coated with fibronectin, and hiPSC-CMs were seeded onto the plates at a density of 30,000 cells per well. Culture medium was exchanged for Agilent Seahorse XF RPMI Basal Medium supplemented with 5.5 mM glucose, 2 mM glutamine, 150 µM sodium pyruvate, 100 µM Palmitate/BSA, and 5 mM Hepes, 1 h before the assay and for the duration of the measurement. For the Mito Stress test, mitochondria inhibitors were injected during the measurements as follows: Oligomycin (2 µM), 2.4-Dinitrophenol (DNP, 225 µM), rotenone, and antimycin A (both at 1.11 µM). The oxygen consumption rate (OCR) and extracellular acidification rate (ECAR) values were normalized to the number of nuclei per well quantified by Hoechst staining and fluorescence imaging. The baseline OCR was defined as the average values measured from time points 2 to 4 during the experiments subtracting the non-mitochondrial oxygen consumption rate determined as the minimum rate measurement after rotenone/antimycin A injection. Spare respiratory capacity was calculated as the difference between uncoupler DNP and baseline OCR values. ATP production was calculated by subtracting the minimum rate measurement after Oligomycin injection from the last rate measurement before Oligomycin injection. Proton leak was calculated by subtracting non-mitochondrial OCR from the minimum rate measurement after Oligomycin injection. Lastly, oxidation of exogenous FA was measured after injection of 50 µM Etomoxir. OCR due to FA oxidation was determined by subtracting the minimum rate measurement after Etomoxir injection from the last rate measurement before Oligomycin injection. All wells with a basal respiratory rate below 40 pmol/min were excluded from analysis.

ACC1 = tested on: ACC1; design: method as in PMID 12842871; conditions: ACC1 isoform; cited from earlier work
ACC2 = tested on: ACC2; design: method as in PMID 12842871; conditions: ACC2 isoform; cited from earlier work
hiPSC-CMs [4] = assay: In vitro hypertrophy model, ET-1 stimulation; format: cell-based, human; conditions: 10 nM ET-1, 48 h
Description: After 2 weeks in either standard or maturation media, medium was switched to hypertrophy stimulation medium composed of RPMI no glucose supplemented with B27 plus insulin, 5.5 mM glucose and 10 nM endothelin-1 (ET-1, E7764). hPSC-CMs were cultured for 48 h in this medium before their use for further analyses.
Cell area, circularity index, and aspect ratio were determined with FIJI (ImageJ v.2.14.0) software using standard analysis plugins. For each condition, at least 60 cells were analyzed.
RNA extraction was performed using the Agencourt RNAdvance Cell V2 kit (catalog no. A47942, Beckman Coulter, Bromma, Sweden) according to the manufacturer’s instructions. RNA quality was assessed using the Fragment Analyzer Standard Sensitivity RNA kit from Agilent Technologies, ensuring an RNA integrity number greater than 7. Library preparation for iCell cardiomyoctes^2 and Chips22 derived CMs was performed at the NGI (National Genomic Infrastructure, KTH, Stockholm, Sweden) using the Illumina TruSeq stranded mRNA library preparation kit. Clustering was conducted by ‘cBot’, and sequencing was performed on a NovaSeq 6000 (NovaSeq Control Software 1.6.0/RTA v3.4.4) with a 2 × 150 setup using the ‘NovaSeqXp’ workflow in the ‘S4’ flowcell. […] Sequenced reads were quality-controlled with the FastQC software and pre-processed with Trim Galore. Processed reads from iCell cardiomyocytes^2 and Chips22 were aligned to the reference genome GRCh37 with the STAR aligner, and Tophat2 with Bowties was used to map IPS C32 reads to GRCh38. Read counts for the genes were generated using the featureCounts library and normalized FPKM values calculated with StringTie. […]
Differences in gene expression were identified using the DESeq2 method. The analysis was based on read counts, which are required to assess the measurement precision accurately. […]

[5] = 1 µM isoproterenol, maturation medium compared to maturation medium without ACC2i

With `[Ba+2].[Cl-].[Cl-]` [Ba^2+, BaCl2] the “block of inward current” value ([1]; 100 µM Ba2+) was greater than 90%.

In the case of `O=C(c1c2ccccc2cc2ccccc12)N1CCC(N2CCC[C@@H](C(=O)N3CCOCC3)C2)CC1` [CP-640186], the “calcium transient amplitude and kinetics” value (iPSC C32 CMs; with ACC2i vs without) is reported as “significantly improved”, the “ACC2i concentration resulting in a decrease in the number of nuclei (potential cardiac toxicity)” value (hiPSC-CMs [2]) is reported as “exceeding 5 uM” and the calcium transient duration (iCell CMs^2) is reported as “reduction”. For the same compound, the “calcium uptake and decay kinetics” value (iCell CMs^2) was “significant enhancement”, the transient calcium amplitude (iCell CMs^2) was “no change” and the “FAO reliance (change in basal respiration upon etomoxir)” value (hiPSC-CMs [3]) was “significantly increased”. For the same compound, the “increase in reserve capacity” value (hiPSC-CMs [3]; 5 µM ACC2i) was 1.7 fold, the “reduction in energy dissipation through proton leak” value (hiPSC-CMs [3]; 5 µM ACC2i) was 2.5 fold and the IC50 (ACC1) was roughly 55 nM. For the same compound, the IC50 (ACC2) was roughly 55 nM.

In the case of `CC(C)NCC(O)c1ccc(O)c(O)c1` (centres unmarked) [isoproterenol], the “increase in amplitude upon stimulation” value (iPSC C32 CMs; [5]) is reported as “significantly higher increase” and the “increase in beat rate upon stimulation” value (iPSC C32 CMs; [5]) is reported as “significantly higher increase”.

With `COc1cc2c(cc1OC)CC(=O)N(CCCN(C)C[C@H]1Cc3cc(OC)c(OC)cc31)CC2` [ivabradine] the “block of inward current” value ([1]; 10 µM ivabradine) was ~ 5%.

In the case of “endothelin-1 (CSCSSLMDKECVYFCHLDIIW; disulfide 1-15, 3-11; ends not checked; UniProt P05305 53-73, looked up) [ET-1]”, the structural changes (hiPSC-CMs [4]; cells cultured in standard medium) is reported as “no significant structural changes”, the cell area (hiPSC-CMs [4]; maturation medium group) is reported as “trend towards increased” and the length-to-width ratio (hiPSC-CMs [4]; maturation medium group) is reported as “significant decrease”.
